“Also recorded” adds a separate entry of the source. Like-named read-outs stand apart in the source and are kept apart here.
Assays:
[1] = test system: ABCR knockout mice; details: cited from earlier work
[2] = mouse, in vivo; cited from earlier work
[3] = test system: users; details: cited from earlier work
[4] = In vitro A2E formation from retinal, ethanolamine and acetic acid, followed by HPLC; details: mass spectrometry of the reaction mixture after 50 hours
[5] = test system: CD-1 (ICR) mice; assay: A2E-lipofuscin in eyes of CD-1 (ICR) mice after IP retinal dosing, HPLC; type: in vivo; details: 1.5 mg IP bi-weekly for 6 weeks; HPLC at 445 nm
Description: C20-D3-all-trans-retinal was administered to mice in order to measure its ability to form A2E in the eye compared to all-trans-retinal. […], 8-week old, CD-1 (ICR) mice (from Charles River, Wilmington, Mass.) were divided up into two groups of five and administered 1.5 mg of ether all-trans-retinal or C20-D3-all-trans-retinal by intraperitoneal injection (IP) injection in a 10% solution of Tween-20 in saline bi-weekly for 6 weeks. At the end of this six-week period, each mouse was given a total of 60,000 I.U.(18 mg) or about 28-times the original amount of vitamin A in the mouse's body. Massive dosing with C20-D3-all-trans-retinal quickly replaces normal vitamin A stores with the C20-D3-analog. And, the injected retinal rapidly accumulates in the eye (rod outer segments), where at high enough concentrations it will react to form lipofuscin pigments. This is similar to the accumulation of all-trans-retinal in the ABCR^−/− mice and in patents with Stargardt's disease.
At the end of the six week period, the eyes were dissected, the retinas and eyecups pooled into groups of 4 or 5, and homogenated with 50 μL ethanol. The homogenate was centrifuged at 13,000 rpm for 5 minutes and 40 μL of the supernatant was drawn off and analyzed for A2E-lipofuscin by HPLC. Retinol and retinol esters were analyzed at 325 nm and A2E-lipofuscin was measured at 445 nm.

[6] = test system: CD IGS rats; assay: A2E-lipofuscin in wild-type CD IGS rats after 8 weeks of IP retinal dosing, HPLC; type: in vivo; details: for Total A2E-lipofuscin versus retinal group (FIG. 7A, in words): C20-D3-retinal alone, Fenretinide or TDH given with retinal; for Less A2E-lipofuscin compared to animals administered only all-trans-retinal: all-trans-retinal 3 mg IP for 8 weeks plus drug at roughly 1.5 mg/day/animal in drinking water
Description: Animals treated with retinal had the greatest amount of A2E-lipofuscin (normalized to 100%).
45-50 day old, female, CD IGS rats (Charles River, Wilmington, Mass.) were divided up into four groups of three. Three of these groups were administered all-trans-retinal and the one group was given C20-D3-all-trans-retinal (IP injection in a 10% solution of Tween-20 in saline) at 3 mg, bi- or tri-weekly for 8 weeks (20, 3 mg injections total). Thus, at the end of the 8-week period the animals received roughly 20 times their original stores of vitamin A, as retinal or C20-D3-all-trans-retinal. Massive dosing with C20-D3-all-trans-retinal quickly replaces normal vitamin A stores with the C20-D3-analog. Of the three groups administered all-trans-retinal, one group was given Fenretinide (50) and another TDH (23), at doses of roughly 1.5 mg/day/animal (both supplied in the drinking water emulsified with 1 g/L of Nu-rice (RIBUS, Inc, St. Louis, Mo.)).
At the end of the 8 weeks, RPE, A2E-lipofuscin was evaluated in each of the four groups by HPLC as described in Example 3 and in FIG. 7. A2E-lipofuscin pigments were greatest in the animals receiving all-trans-retinal (the control group).

[7] = test system: ABCR−/− mice; assay: A2E-lipofuscin in eyecups of ABCR-/- mice after 3-month diet, HPLC; type: in vivo; details: diet with 20,000 I.U./kg for 3 months, from 2 months of age; HPLC at 445 nm
Description: C20-D3-all-trans-retinol acetate was prepared according to the literature procedure (47) and was administered to ABCR^−/− mice (48, 49) in order to measure its ability to lead to lipofuscin compared to that of all-trans-retinol acetate. Eight 2-month old, ABCR^−/− mice raised on a standard rodent diet were then fed a diet containing 20,000 I.U./kg of either C20-D3-all-trans-retinol acetate or all-trans-retinol acetate for 3 months.
At the end of the […] period, the eyes were dissected, eyecups pooled into groups of six and homogenated with 80 μL ethanol. The homogenate was centrifuged at 13000 rpm for 5 min and 30 μL of the supernatant was drawn off and analyzed for A2E-lipofuscin by HPLC. A2E-lipofuscin was measured at 445 nm. […] This percentage of A2E reduction is on the same order of magnitude observed in similar studies in ABCR^−/− mice with the visual cycle antagonist TDH, TDT, Ret-NH2, 13-cis-retinoic, acid and fenretinide. However, in this example A2E reduction is achieved with doses of C20-D3-all-trans-retinol acetate that are 11- to 40-times less.

[8] = test system: ABCR−/− mice; assay: Extractable lipofuscin pigments in eyecups of ABCR-/- mice raised exclusively on the diet, HPLC; type: in vivo; details: 5.5-6 month old mice raised only on the diet, offspring of mothers on the same diet
Description: On the other hand, lipofuscin pigments were undetectable in mice raised on the C20-D3-all-trans-retinol acetate diet.
As in Example 4, two groups of four ABCR^−/− mice where raised either on diets containing C20-D3-all-trans-retinol acetate or all-trans-retinol acetate. However, in this example the mice were offspring of mothers on the same diet, and thus where raised only on their respective vitamin A analogs. At 5.5-6 months of age the mice were sacrificed and the eyecups were analyzed for lipofuscin pigments as described in Example 4. The results are shown FIG. 5.

[9] = test system: ABCR−/− mice; assay: Electron microscopy of RPE lipofuscin deposits in ABCR-/- mice raised exclusively on the diet; type: in vivo; details: 5.5-6 month old mice raised only on the diet
Source text: Due to the uncertainty in distinguishing lipofuscin from melanin bodies. Comparisons were made between the numbers of all dark, electron dense bodies found in the RPE between mice on the retinol acetate diet vs. those on the C20-D3-all-trans-retinol acetate diet. In addition to the electron dense lipofuscin and melanin bodies, RPE phagosomes, mitochondria, and lipid droplets are also present but were ultrastructurally distinct.
In order to measure the amount lipofuscin granules in the eyes of the above mice on a normal diet vs. the diet containing C20D3-all-trans-retinol acetate, eyecups from both groups of mice (2 from each group) were evaluated by electron microscopy.

[10] = In vitro A2E formation from C20-fluorinated retinal, monitored by HPLC; details: C20 hydrogens replaced by fluorine; disappearance of retinal and absence of fluorinated A2E by HPLC
Source text: In the present invention, when the C20 hydrogens of all-trans-retinoids are replaced by fluorine atoms (F3), the formation of A2E is eliminated, as measured by monitoring the disappearance of C20-F3-all-trans-retinal and the absence of the corresponding fluorinated A2E by HPLC. A2E and the ATR-dimer are believed to be formed in vivo by a multi-step reaction sequence involving two molecules of all-trans-retinal, as shown in FIG. 2. In the first step, all-trans-retinal condenses with a biological amine to form the imine. This imine is then thought to undergo a hydrogen shift involving a hydrogen atom at carbon C20 (step 2). Subsequent reaction (step 3) with another molecule of retinal either by 1,2- or 1,4-addition followed by cyclizations (step 4) yields A2E or ATR-dimer precursors, respectively. A2E is subsequently formed after spontaneous oxidation in air, and ATR dimer, after elimination (step 4).
It has been shown that replacing certain C—H bonds with C—F bonds in retinal (i.e., C20-F1-3-retinal) hampers the reactivity of all-trans-retinal, and, thus slows or eliminates the formation of A2E in vitro. By replacing hydrogen atoms at C20 with fluorine, the hydrogen shift step is blocked. Accordingly, C20-F1-3-retinal is expected to appreciably slow A2E and ATR-dimer biosynthesis.

[11] = test system: patients; details: 200 mg/day for five years, 1,432 patients; cited from earlier work
[12] = test system: patients; details: oral 600 or 900 mg/m2 bid in 6-week cycles, cited from earlier work
[13] = 2-month-old ABCR knockout mice, 50 mg/kg bi-weekly for two months

Compound: CC1=C(/C=C/C(C)=C/C=C/C(C)=C\C(=O)O)C(C)(C)CCC1 [13 cis-retinoic acid]
- Lipofuscin formation in the RPE cell layer judged by electron microscopy ([1]; 2-month-old ABCR knockout mice, 20 mg/kg/day for two months): decrease in lipofuscin formation
- Decrease in A2E formation compared to control ABCR knockout mice ([1]; 3-month-old ABCR knockout mice, 40 mg/kg/day for one month): 40-50%
- Effect on dark adaptation when administered [2]: delayed dark adaptation
- Share of users with back pain, muscle and joint pain, allergic reaction, dizziness, hair loss, dry eyes, decreased night vision, low blood counts and others ([3]; in vivo): 10-29%
- Share of users with headache, fever, dry skin, dry mucous membranes, bone pain, nausea and vomiting, rash, mouth sores, itching, sweating, eyesight changes ([3]; larger doses used to treat cancer): more than 30%

Compound: [2H]C([2H])([2H])C(/C=C/C=C(C)/C=C/C1=C(C)CCCC1(C)C)=C\C=O [C20-D3-all-trans-retinal]
- Hydrogen deuterium exchange during the reaction [4]: not observed
- Less A2E-lipofuscin compared to mice administered all-trans-retinal [5]: 68%
- Less A2E-lipofuscin than animals receiving all-trans-retinal ([6]; 3 mg IP bi- or tri-weekly for 8 weeks, given instead of all-trans-retinal): 35%
- Total A2E-lipofuscin versus retinal group (FIG. 7A, in words) [6]: less A2E-lipofuscin

Compound: [2H]C([2H])([2H])C(/C=C/C=C(C)/C=C/C1=C(C)CCCC1(C)C)=C\COC(C)=O [C20-D3-all-trans-retinol acetate]
- Less A2E-lipofuscin compared to mice on a diet of all-trans-retinol acetate [7]: 44-58%
- Lipofuscin pigments extracted from eyecups (HPLC) [8]: undetectable
- Electron dense (lipofuscin) bodies in the RPE versus retinol acetate diet [9]: less electron dense lipofuscin deposits; also recorded: considerably less electron dense bodies

Compound: CC(C=CC1=C(C)CCCC1(C)C)=CC=CC(=CC=O)C(F)(F)F [C20-F3-all-trans-retinal]
- Formation of A2E [10]: eliminated

Compound: CC1=C(/C=C/C(C)=C/C=C/C(C)=C/C(=O)Nc2ccc(O)cc2)C(C)(C)CCC1 [Fenretinide, N-(4-hydroxyphenyl)retinamide]
- Total A2E-lipofuscin versus retinal group (FIG. 7A, in words) [6]: less A2E-lipofuscin
- Less A2E-lipofuscin compared to animals administered only all-trans-retinal [6]: 49%
- Decrease in A2E formation compared to control ABCA4 knockout mice ([1]; 2-month-old ABCA4 knockout mice, 20 mg/kg/day for one month): 40-50%
- Effect on dark adaptation when administered [2]: delayed dark adaptation
- Dermatologic disorders, incidence [11]: 16%
- Diminished dark adaptation, cumulative incidence [11]: 16%
- Disorders of the ocular surface, incidence [11]: 8%
- Gastrointestinal symptoms, incidence [11]: 8%
- Patients with mild to moderate adverse effects possibly linked to the drug ([12]; 45 patients): 95%
- Grade 2 toxicities reported as possibly linked to treatment [12]: seizures and confusion

Compound: CC1=C(/C=C/C(C)=C/C=C/C(C)=C/CN)C(C)(C)CCC1 [Ret-NH2, All-trans-retinylamine]
- Decrease in A2E formation compared to control ABCA4 knockout mice ([1]; 1-month-old ABCA4 knockout mice, 40 mg/kg bi-weekly for two months): about 50%
- Effect on dark adaptation when administered [2]: severe delayed dark adaptation

Compound: CCCCCCCCCCCCCCCCNC/C=C(\C)CC/C=C(\C)CCC=C(C)C [TDH, (2E,6E)-N-hexadecyl-3,7,11-trimethyldodeca-2,6,10-trienamine]
- Total A2E-lipofuscin versus retinal group (FIG. 7A, in words) [6]: less A2E-lipofuscin
- Less A2E-lipofuscin compared to animals administered only all-trans-retinal [6]: 31%
- Decrease in A2E formation compared to control ABCR knockout mice [1, 13]: about 50%
- Effect on dark adaptation when administered [2]: delayed dark adaptation

Compound: CCCCCCCCCCC(=O)/C=C(\C)CC/C=C(\C)CCC=C(C)C [TDT, (12E,16E)-13,17,21-trimethyldocosa-12,16,20-trien-11-one]
- Decrease in A2E formation compared to control ABCR knockout mice [1, 13]: 50-85%
- Effect on dark adaptation when administered [2]: delayed dark adaptation

Compound: CC1=C(/C=C/C(C)=C/C=C/C(C)=C/C=O)C(C)(C)CCC1 [all-trans-retinal]
- Total A2E, HPLC peak area at 445 nm, normalized ([6]; FIG. 7A, three female rats per group): 100%

Compound: all-trans-retinol acetate
- Lipofuscin pigments extracted from eyecups (HPLC) [8]: detectable
- Lipofuscin pigments extracted from eyecups (HPLC) ([8]; listed as retinol acetate): considerable accumulation of lipofuscin pigments

— patent US8877809B2, “Compositions and methods for treating macular degeneration” (The Trustees of Columbia University in the City of New York, priority 2007, dated 2014)
